# Experimental data reported in US20250114460A1, “NOVEL PLK1 DEGRADATION INDUCING COMPOUND” (UPPTHERA, INC., priority 2021, published 2025).
# Target: T1, PLK1 (Homo sapiens, UniProt P53350)
# T1 construct: endogenous in cells; host or cells: HeLa LgBit (Plk1-HiBit KI): HeLa stably expressing LgBit, with a CRISPR/Cas9 knock-in of HiBit at the endogenous PLK1 locus
# Experiment: Luciferase assay for PLK1 in HeLa LgBit (Plk1-HiBit KI) cell line
# Format: cell-based
# Settings: 300 nM compound, luminescence after 9 hours
# In short: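 HeLa cells stably expressing LgBit, with HiBit knocked in at the C-terminus of endogenous Plk1, released from a 24 h 2 mM thymidine block and grown 18 h. Endurazine added, then compound at 300 nM; luminescence tracked in real time, expressed as ratio to DMSO.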
# T1 sequence (P53350 whole entry): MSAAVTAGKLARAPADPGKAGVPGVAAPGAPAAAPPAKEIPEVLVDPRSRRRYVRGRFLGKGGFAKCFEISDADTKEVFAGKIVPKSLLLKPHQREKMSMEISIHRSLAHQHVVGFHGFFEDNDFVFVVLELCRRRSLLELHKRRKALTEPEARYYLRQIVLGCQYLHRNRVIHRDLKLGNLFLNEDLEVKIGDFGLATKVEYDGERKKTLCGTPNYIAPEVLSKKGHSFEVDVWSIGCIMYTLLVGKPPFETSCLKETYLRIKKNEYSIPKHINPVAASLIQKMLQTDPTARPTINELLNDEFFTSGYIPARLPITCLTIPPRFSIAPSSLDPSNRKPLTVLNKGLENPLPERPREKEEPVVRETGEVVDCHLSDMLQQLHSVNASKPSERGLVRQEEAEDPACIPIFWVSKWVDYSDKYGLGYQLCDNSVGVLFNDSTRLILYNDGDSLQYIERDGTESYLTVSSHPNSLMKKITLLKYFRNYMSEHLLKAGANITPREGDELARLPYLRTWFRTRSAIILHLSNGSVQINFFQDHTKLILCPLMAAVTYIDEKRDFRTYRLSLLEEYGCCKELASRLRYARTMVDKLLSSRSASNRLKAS
row,Activity: ratio of the luminescense value of each Exemplary Compound treatment group to DMSO treatment group,Compound
1,+ (+<0.7),"COc1cc(C(=O)NC2CCN(C(=O)CCNc3cccc4c3C(=O)N(C3CCC(=O)NC3=O)C4=O)CC2)c(F)cc1Nc1ncc2c(n1)N(C1CCCC1)CC(F)(F)C(=O)N2C (stereo not drawn) [Compound 24, 4-((9-cyclopentyl-7,7-difluoro-5-methyl-6-oxo-6,7,8,9-tetrahydro-5H-pyrimido[4,5-b][1,4]diazepin-2-yl)amino)-N-(1-(3-((2-(2,6-dioxopiperidin-3-yl)-1,3-dioxoisoindolin-4-yl)amino)propanoyl)piperidin-4-yl)-2-fluoro-5-methoxybenzamide]"
2,++ (++<0.6),"COc1cc(C(=O)N2CCN(CCCN3CCN(c4cccc5c4C(=O)N(C4CCC(=O)NC4=O)C5=O)CC3)CC2)ccc1Nc1ncc2c(n1)N(C1CCCC1)CC(F)(F)C(=O)N2C (stereo not drawn) [Compound 87, 4-(4-(3-(4-(4-((9-cyclopentyl-7,7-difluoro-5-methyl-6-oxo-6,7,8,9-tetrahydro-5H-pyrimido[4,5-b][1,4]diazepin-2-yl)amino)-3-methoxybenzoyl)piperazin-1-yl)propyl)piperazin-1-yl)-2-(2,6-dioxopiperidin-3-yl)isoindoline-1,3-dione]"
3,+ (+<0.7),"COc1cc(C(=O)N2CCN(CCCCNc3ccc4c(c3)C(=O)N(C3CCC(=O)NC3=O)C4=O)CC2)c(F)cc1Nc1ncc2c(n1)N(C1CCCC1)CC(F)(F)C(=O)N2C (stereo not drawn) [Compound 187, 5-((4-(4-(4-((9-cyclopentyl-7,7-difluoro-5-methyl-6-oxo-6,7,8,9-tetrahydro-5H-pyrimido[4,5-b][1,4]diazepin-2-yl)amino)-2-fluoro-5-methoxybenzoyl)piperazin-1-yl)butyl)amino)-2-(2,6-dioxopiperidin-3-yl)isoindoline-1,3-dione]"
4,++ (++<0.6),"COc1cc(C(=O)NC2CCN(C(=O)CC[C@H]3CN(Cc4cccc5c4C(=O)N(C4CCC(=O)NC4=O)C5=O)CCO3)CC2)ccc1Nc1ncc2c(n1)N(C1CCCC1)CC(F)(F)C(=O)N2C (stereo partly drawn) [Compound 174, 4-((9-cyclopentyl-7,7-difluoro-5-methyl-6-oxo-6,7,8,9-tetrahydro-5H-pyrimido[4,5-b][1,4]diazepin-2-yl)amino)-N-(1-(3-((2S)-4-((2-(2,6-dioxopiperidin-3-yl)-1,3-dioxoisoindolin-4-yl)methyl)morpholin-2-yl)propanoyl)piperidin-4-yl)-3-methoxybenzamide]"
5,+ (+<0.7),"COc1cc(C(=O)NC2CCN(C(=O)[C@@H]3C[C@H](Nc4cccc5c4C(=O)N(C4CCC(=O)NC4=O)C5=O)CN3)CC2)c(F)cc1Nc1ncc2c(n1)N(C1CCCC1)CC(F)(F)C(=O)N2C (stereo partly drawn) [Compound 206, 4-((9-cyclopentyl-7,7-difluoro-5-methyl-6-oxo-6,7,8,9-tetrahydro-5H-pyrimido[4,5-b][1,4]diazepin-2-yl)amino)-N-(1-((2S,4S)-4-((2-(2,6-dioxopiperidin-3-yl)-1,3-dioxoisoindolin-4-yl)amino)pyrrolidine-2-carbonyl)piperidin-4-yl)-2-fluoro-5-methoxybenzamide]"
6,++ (++<0.6),"COc1cc(C(=O)NC2CCC(N3CCN(CCOCCNc4ccc5c(c4)C(=O)N(C4CCC(=O)NC4=O)C5=O)CC3)CC2)c(F)cc1Nc1ncc2c(n1)N(C1CCCC1)CC(F)(F)C(=O)N2C (stereo not drawn) [Compound 193, 4-((9-cyclopentyl-7,7-difluoro-5-methyl-6-oxo-6,7,8,9-tetrahydro-5H-pyrimido[4,5-b][1,4]diazepin-2-yl)amino)-N-((1r,4r)-4-(4-(2-(2-((2-(2,6-dioxopiperidin-3-yl)-1,3-dioxoisoindolin-5-yl)amino)ethoxy)ethyl)piperazin-1-yl)cyclohexyl)-2-fluoro-5-methoxybenzamide]"
7,++ (++<0.6),"CN1C(=O)C(F)(F)CN(C2CCCC2)c2nc(Nc3ccc(C(=O)NC4CCN(C(=O)CCN5CCN(c6cccc7c6C(=O)N(C6CCC(=O)NC6=O)C7=O)CC5)CC4)cc3OCCO)ncc21 (stereo not drawn) [Compound 73, 4-((9-cyclopentyl-7,7-difluoro-5-methyl-6-oxo-6,7,8,9-tetrahydro-5H-pyrimido[4,5-b][1,4]diazepin-2-yl)amino)-N-(1-(3-(4-(2-(2,6-dioxopiperidin-3-yl)-1,3-dioxoisoindolin-4-yl)piperazin-1-yl)propanoyl)piperidin-4-yl)-3-(2-hydroxyethoxy)benzamide]"
8,++ (++<0.6),"COc1cc(C(=O)NCCOCCOCCNc2cccc3c2C(=O)N(C2CCC(=O)NC2=O)C3=O)c(N2CCN(C)CC2)cc1Nc1ncc2c(n1)N(C1CCCC1)CC(F)(F)C(=O)N2C (stereo not drawn) [Compound 222, 4-((9-cyclopentyl-7,7-difluoro-5-methyl-6-oxo-6,7,8,9-tetrahydro-5H-pyrimido[4,5-b][1,4]diazepin-2-yl)amino)-N-(2-(2-(2-((2-(2,6-dioxopiperidin-3-yl)-1,3-dioxoisoindolin-4-yl)amino)ethoxy)ethoxy)ethyl)-5-methoxy-2-(4-methylpiperazin-1-yl)benzamide]"
9,++ (++<0.6),"COc1cc(C(=O)N2CCC(CCCCN3CCN(c4cccc5c4C(=O)N(C4CCC(=O)NC4=O)C5=O)CC3)CC2)ccc1Nc1ncc2c(n1)N(C1CCCC1)CC(F)(F)C(=O)N2C (stereo not drawn) [Compound 96, 4-(4-(4-(1-(4-((9-cyclopentyl-7,7-difluoro-5-methyl-6-oxo-6,7,8,9-tetrahydro-5H-pyrimido[4,5-b][1,4]diazepin-2-yl)amino)-3-methoxybenzoyl)piperidin-4-yl)butyl)piperazin-1-yl)-2-(2,6-dioxopiperidin-3-yl)isoindoline-1,3-dione]"
10,+ (+<0.7),"COc1cc(C(=O)NC2CCN(C[C@@H]3CCN(c4ccc5c(c4)C(=O)N(C4CCC(=O)NC4=O)C5=O)C3)CC2)ccc1Nc1ncc2c(n1)N(C1CCCC1)CC(F)(F)C(=O)N2C (stereo partly drawn) [Compound 48, 4-((9-cyclopentyl-7,7-difluoro-5-methyl-6-oxo-6,7,8,9-tetrahydro-5H-pyrimido[4,5-b][1,4]diazepin-2-yl)amino)-N-(1-(((3S)-1-(2-(2,6-dioxopiperidin-3-yl)-1,3-dioxoisoindolin-5-yl)pyrrolidin-3-yl)methyl)piperidin-4-yl)-3-methoxybenzamide]"
11,++ (++<0.6),"COc1cc(C(=O)NC2CCN(C(=O)CCC#Cc3cccc4c3C(=O)N(C3CCC(=O)NC3=O)C4=O)CC2)ccc1Nc1ncc2c(n1)N(C1CCCC1)CC(F)(F)C(=O)N2C (stereo not drawn) [Compound 179, 4-((9-cyclopentyl-7,7-difluoro-5-methyl-6-oxo-6,7,8,9-tetrahydro-5H-pyrimido[4,5-b][1,4]diazepin-2-yl)amino)-N-(1-(5-(2-(2,6-dioxopiperidin-3-yl)-1,3-dioxoisoindolin-4-yl)pent-4-ynoyl)piperidin-4-yl)-3-methoxybenzamide]"
12,+ (+<0.7),"COc1cc(C(=O)NC2CCN(C(=O)CC3CN(c4cccc5c4C(=O)N(C4CCC(=O)NC4=O)C5=O)C3)CC2)c(F)cc1Nc1ncc2c(n1)N(C1CCCC1)CC(F)(F)C(=O)N2C (stereo not drawn) [Compound 204, 4-((9-cyclopentyl-7,7-difluoro-5-methyl-6-oxo-6,7,8,9-tetrahydro-5H-pyrimido[4,5-b][1,4]diazepin-2-yl)amino)-N-(1-(2-(1-(2-(2,6-dioxopiperidin-3-yl)-1,3-dioxoisoindolin-4-yl)azetidin-3-yl)acetyl)piperidin-4-yl)-2-fluoro-5-methoxybenzamide]"
13,+ (+<0.7),"COc1cc(N2CCC(CN3CCN(c4ccc5c(c4)C(=O)N(C4CCC(=O)NC4=O)C5=O)CC3)CC2)c(F)cc1Nc1ncc2c(n1)N(C1CCCC1)CC(F)(F)C(=O)N2C (stereo not drawn) [Compound 111, 5-(4-((1-(4-((9-cyclopentyl-7,7-difluoro-5-methyl-6-oxo-6,7,8,9-tetrahydro-5H-pyrimido[4,5-b][1,4]diazepin-2-yl)amino)-2-fluoro-5-methoxyphenyl)piperidin-4-yl)methyl)piperazin-1-yl)-2-(2,6-dioxopiperidin-3-yl)isoindoline-1,3-dione]"
14,++ (++<0.6),"COc1cc(C(=O)N2CCN(CCCCN3CCN(c4cccc5c4C(=O)N(C4CCC(=O)NC4=O)C5=O)CC3)CC2)ccc1Nc1ncc2c(n1)N(C1CCCC1)CC(F)(F)C(=O)N2C (stereo not drawn) [Compound 88, 4-(4-(4-(4-(4-((9-cyclopentyl-7,7-difluoro-5-methyl-6-oxo-6,7,8,9-tetrahydro-5H-pyrimido[4,5-b][1,4]diazepin-2-yl)amino)-3-methoxybenzoyl)piperazin-1-yl)butyl)piperazin-1-yl)-2-(2,6-dioxopiperidin-3-yl)isoindoline-1,3-dione]"
15,+ (+<0.7),"COc1cc(N2CCC(CCN3CCN(c4ccc5c(c4)C(=O)N(C4CCC(=O)NC4=O)C5=O)CC3)CC2)c(F)cc1Nc1ncc2c(n1)N(C1CCCC1)CC(F)(F)C(=O)N2C (stereo not drawn) [Compound 112, 5-(4-(2-(1-(4-((9-cyclopentyl-7,7-difluoro-5-methyl-6-oxo-6,7,8,9-tetrahydro-5H-pyrimido[4,5-b][1,4]diazepin-2-yl)amino)-2-fluoro-5-methoxyphenyl)piperidin-4-yl)ethyl)piperazin-1-yl)-2-(2,6-dioxopiperidin-3-yl)isoindoline-1,3-dione]"
